The values that follow come from patent US8754220B2, “Quinolizidinone carboxamide M1 receptor positive allosteric modulators” (Merck Sharp & Dohme Corp., priority 2009, dated 2014).

This test has as its target T1, acetylcholine muscarinic M1 receptor (CHOnfat/hM1 cells) (Homo sapiens, UniProt P11229).
T1 construct: expressed in transfected cells; host or cells: CHOnfat (CHO cells; selected with Geneticin)
T1 sequence (P11229 1-460): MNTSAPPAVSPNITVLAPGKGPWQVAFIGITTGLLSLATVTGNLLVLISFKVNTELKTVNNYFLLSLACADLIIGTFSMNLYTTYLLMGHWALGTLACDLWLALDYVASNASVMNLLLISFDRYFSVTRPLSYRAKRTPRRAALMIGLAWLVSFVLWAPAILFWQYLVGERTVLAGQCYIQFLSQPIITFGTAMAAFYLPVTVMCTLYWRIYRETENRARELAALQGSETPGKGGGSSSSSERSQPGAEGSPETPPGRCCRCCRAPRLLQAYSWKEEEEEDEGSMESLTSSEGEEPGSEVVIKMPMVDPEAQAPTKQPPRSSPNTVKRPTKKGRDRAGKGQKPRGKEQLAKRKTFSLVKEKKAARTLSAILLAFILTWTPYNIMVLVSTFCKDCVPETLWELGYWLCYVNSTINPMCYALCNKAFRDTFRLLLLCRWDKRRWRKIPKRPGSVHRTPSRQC
In words: FLIPR intracellular calcium assay for M1 positive allosteric modulator activity (acetylcholine EC20). It is filed as cell-based. As for the experimental part:
The assay studies the effect of one or several concentrations of test compounds on basal or acetylcholine-stimulated Ca^2+ levels using FLIPR.
Compounds are prepared and subjected to a preincubation period of 4 min. Thereafter, a single EC20 concentration of acetylcholine is added to each well (3 nM final). The intracellular Ca^2+ level of each sample is measured and compared to an acetylcholine control to determine any modulatory activity.
Cells: CHOnfat/hM1, hM2, hM3 or hM4 cells are plated 24 hr before the assay at a density of 18,000 cells/well (100 μL) in a 384 well plate. CHOnfat/hM1 and CHOnfat/hM3 Growth Medium: 90% DMEM (Hi Glucose); 10% HI FBS; 2 mM L-glutamine; 0.1 mM NEAA; Pen-Strep; and 1 mg/ml Geneticin, are added. For M2Gqi5CHOnfat and M4Gqi5CHOnfat cells, an additional 600 μg/ml hygromycin is added.
Equipment: 384 well plate, 120 μL addition plate; 96-well Whatman 2 ml Uniplate Incubator, 37° C., 5% CO2; Skatron EMBLA-384 Plate Washer; Multimek Pipetting System; Genesis Freedom 200 System; Mosquito System; Temo Nanoliter Pipetting System; and FLIPR^384 Fluorometric Imaging Plate Reader System are used.
Buffers. Assay Buffer: Hanks Balanced Salt Solution, with 20 mM Hepes, 2.5 mM Probenecid (Sigma P-8761) first dissolved in 1 N NaOH, 1% Bovine Serum Albumin (Sigma A-9647). Dye Loading Buffer: Assay Buffer plus 1% Fetal Bovine Serum and Fluo-4AM/Pluronic Acid Mixture. 2 mM Fluo-4AM ester stock in DMSO (Molecular Probes F-14202) Concentration of 2 μM in buffer for a final concentration of 1 μM in Assay. 20% Pluronic Acid Solution stock, with concentration of 0.04% in Buffer, 0.02% in Assay.
65 μL of 2 mM Fluo-4AM are mixed with 130 μL of 20% Pluronic Acid. The resulting solution and 650 μL FBS is added to the assay buffer for a total volume of 65 mL. Positive Controls: 4-Br-A23187: 10 mM in DMSO; final concentration 10 μM. Acetylcholine: 10 mM in water, working stock at both 20 μM and 30 μM in assay buffer, final concentration of 10 μM. This is used to check the maximum stimulation of the CHOK1/hM1 cells. 20 μM (2×) acetylcholine is added in the preincubation part of the assay, and the 30 μM (3×) stock is added in the second part. (EC20) Acetylcholine: 10 mM in water, working stock of 9 nM (3×), and final concentration in assay is 3 nM. This is used after the preincubation with test compounds. Addition of the EC20 Acetylcholine to each well with a test compound will ascertain any modulator activity. 24 wells contain 3 nM Acetylcholine alone as a control.
Screening Plate: Compounds are titrated in 96-well plates (columns 2-11), 100% DMSO, started at a concentration of 15 mM (150× stock concentration), and 3-fold serial dilutions using Genesis Freedom200 System. Four 96-well plates are combined into a 384-well plate using Mosquito Nanoliter Pipetting System by transferring 1 μl of serial diluted compounds to each well, and 1 mM acetylcholine (100× stock concentration) were added as a control. Using Temo, 49 μl assay buffer is added to each well of the 384-well plate right before assay.
In a 96-well Whatman 2 ml Uniplate, 9 nM Acetylcholine (3×) is pipetted into wells corresponding to the screening compounds, and into control wells. The 30 μM acetylcholine control (3×) is added into control wells, and the 3× agonist plate is transferred into a 384 well plate.
Cells are washed three times with 100 μL of buffer, leaving 30 μL of buffer in each well. Using Multimek, 30 μL of Dye Loading Buffer is added into each well and incubated at 37° C., 5% CO2 for up to one hr.
After 60 min, the cells are washed three times with 100 μL of buffer, leaving 30 μL of buffer in each well. The cell plate, screening plate, and agonist addition plates are placed on the platform in the FLIPR and the door closed. A signal test to check background fluorescence and basal fluorescence signal is performed. Laser intensity is adjusted if necessary. […]
A general note: Calcium flux is commonly read through the fluorescence of an indicator in the cells.

[1] abbreviates: CHOnfat/hM1 cells, 4 min preincubation, then EC20 acetylcholine (3 nM final), FLIPR Ca2+, read-out: IP Value (inflection point).

Where two headings read alike, the source gives them in different places.

Consider `N#CC1(c2ccccn2)CCN(Cc2cc(C(=O)NC3CCOCC3)c(=O)n3ccccc23)CC1` [Example 1, 1-[(4-Cyano-4-pyridin-2-ylpiperidin-1-yl)methyl]-4-oxo-4H—N-(tetrahydro-2H-pyran-4-yl)-4H-quinolizine-3-carboxamide], for which the EC50 under setting [1] was found to be 340 nM.

Regarding `N#CC1(c2ccccn2)CCN(Cc2cc(C(=O)N[C@@H]3CCCCC3=O)c(=O)n3ccccc23)CC1` [Example 15, 1-[(4-Cyano-4-pyridin-2-ylpiperidin-1-yl)methyl]-4-oxo-N-[(1R)-2-oxocyclohexyl]-4H-quinolizine-3-carboxamide], under setting [1], the EC50 amounted to 660 nM. On the same count and under the same terms, in the case of `N#CC1(c2ccccn2)CCN(Cc2cc(C(=O)NC3CCCNC3)c(=O)n3ccccc23)CC1` (stereo not drawn) [Example 19, 1-[(4-Cyano-4-pyridin-2-ylpiperidin-1-yl)methyl]-4-oxo-N-piperidin-3-yl-4H-quinolizine-3-carboxamide] it was 1800 nM. Consider `C[C@]1(O)CCCC[C@@H]1NC(=O)c1cc(CN2CCC(C#N)(c3ccccn3)CC2)c2ccccn2c1=O` (racemic) [Example 14, rac-1-[(4-Cyano-4-pyridin-2-ylpiperidin-1-yl)methyl]-N-[(1R,2R)-2-hydroxy-2-methylcyclohexyl]-4-oxo-4H-quinolizine-3-carboxamide], for which the EC50 worked out at 93 nM.

Consider `N#CC1(c2cc(C(F)F)ccn2)CCN(Cc2cc(C(=O)N[C@H]3CCCC[C@@H]3O)c(=O)n3ccccc23)CC1` [Example 24, 1-({4-Cyano-4-[4-(difluoromethyl)pyridin-2-yl]piperidin-1-yl}methyl)-N-[(1S,2S)-2-hydroxycyclohexyl]-4-oxo-4H-quinolizine-3-carboxamide], for which the EC50 is 25 nM. Still for that read-out and setting: next, `N#CC1(c2cc(CF)ccn2)CCN(Cc2cc(C(=O)N[C@H]3CCCC[C@@H]3O)c(=O)n3ccccc23)CC1` [Example 23, 1-({4-Cyano-4-[4-(fluoromethyl)pyridine-2-yl]piperidin-1-yl}methyl)-N-[(1S,2S)-2-hydroxycyclohexyl]-4-oxo-4H-quinolizine-3-carboxamide]: 34 nM.
